# Results reported in paper PMC6803667, “Binding site plasticity in viral PPxY Late domain recognition by the third WW domain of human NEDD4” (Scientific Reports, 2019).
# Where “and” joins values, the source holds several entries; their conditions need not be identical. Equal values may be shown once. Read-outs that look alike come from different tables or passages of the source. Residues, ends and D or L forms follow the SMILES beside them. No end group written: not given here.
# Tests used:
# hNEDD4-WW3 [1] = molecular target: T1, hNEDD4-WW3 (Homo sapiens, UniProt P46934)
# T1 construct: comprising aminoacids 834–878 (UniProtKB/Swiss-Prot code P46934); GST-His (pETM-30, TEV site) (N, cleaved yes); made in house; host or cells: E. coli BL21/DE3 is printed only for the pETM-11 NMR construct
# T1 sequence (P46934 834-878): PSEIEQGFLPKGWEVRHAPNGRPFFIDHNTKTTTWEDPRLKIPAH
# hYAP-WW2 [2] = molecular target: T2, hYAP-WW2 (Homo sapiens, UniProt P46937); type: binding; conditions: pH 7
# T2 construct: comprising aminoacids 165–209 and 228–271 respectively (UniProtKB/Swiss-Prot code Q7Z574); GST-His (pETM-30, TEV site) (N, cleaved yes); made in house
# T2 sequence (P46937 228-271): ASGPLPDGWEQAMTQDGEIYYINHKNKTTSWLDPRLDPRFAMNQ
# hYAP-WW1 [3] = molecular target: T3, hYAP-WW1 (Homo sapiens, UniProt P46937); type: binding; conditions: pH 7
# T3 construct: comprising aminoacids 165–209 and 228–271 respectively (UniProtKB/Swiss-Prot code Q7Z574); GST-His (pETM-30, TEV site) (N, cleaved yes); made in house
# T3 sequence (P46937 165-209): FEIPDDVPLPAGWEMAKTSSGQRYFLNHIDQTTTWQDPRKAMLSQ
# hNEDD4-WW3 [4] = molecular target: T1, hNEDD4-WW3; assay: biochemical; type: binding
# hNEDD4-WW3 [5] = molecular target: T1, hNEDD4-WW3; assay: biochemical; type: binding; remark: listed apart in the source
# hYAP-WW1 [6] = molecular target: T3, hYAP-WW1; assay: biochemical; type: binding
# rNEDD4-WW2 = conditions: cited from earlier work
# hITCHY-WW3 = conditions: cited from earlier work
# SMURF2-WW3 = conditions: cited from earlier work
# hYAP-WW1 [7] = molecular target: T3, hYAP-WW1; conditions: cited from earlier work
# NEDD4L-WW2 = conditions: cited from earlier work
# SMURF1-WW2 = conditions: cited from earlier work
# hYAP-WW2 [8] = molecular target: T2, hYAP-WW2; conditions: cited from earlier work
# hNEDD4-WW3 [9] = molecular target: T1, hNEDD4-WW3; conditions: cited from earlier work
# SU(dx)-WW4 = conditions: cited from earlier work
# hNEDD4L-WW3 = conditions: cited from earlier work
# dNEDD4-WW3 = conditions: cited from earlier work
compound,measurement,setting,value
CC[C@H](C)[C@H](NC(C)=O)C(=O)N[C@@H](CC(C)C)C(=O)N1CCC[C@H]1C(=O)N[C@H](C(=O)N[C@@H](C)C(=O)N1CCC[C@H]1C(=O)N1CCC[C@H]1C(=O)N[C@@H](CCC(=O)O)C(=O)N[C@@H](Cc1ccc(O)cc1)C(=O)N[C@@H](CCSC)C(=O)N[C@@H](CCC(=O)O)C(=O)N[C@@H](C)C(N)=O)[C@@H](C)O [Ebola],amount by which theoretical enthalpy is smaller than the experimental enthalpy,hNEDD4-WW3 [1],7.17 kcal/mol
same,ΔH conf,hNEDD4-WW3 [1],"-30,01 kJ·mol -1"
CC(=O)N1CCC[C@H]1C(=O)N1CCC[C@H]1C(=O)N1CCC[C@H]1C(=O)N[C@@H](Cc1ccc(O)cc1)C(=O)N[C@H](C(=O)N[C@@H](CCC(=O)O)C(=O)N1CCC[C@H]1C(=O)N[C@H](C(=O)N[C@@H](C)C(=O)N1CCC[C@H]1C(N)=O)[C@@H](C)O)C(C)C [HTLV1 ter] (Ac-PPPYVEPTAP-NH2),Kd,hYAP-WW2 [2],n. b.
same,Kd,hYAP-WW1 [3],n. b.
same,ΔHap,hNEDD4-WW3 [4]; pH 7,-17.7 ± 0.19 kcal/mol
CC[C@H](C)[C@H](NC(=O)[C@H](CCC(N)=O)NC(=O)[C@@H]1CCCN1C(=O)[C@H](CC(=O)O)NC(=O)[C@H](CO)NC(C)=O)C(=O)N1CCC[C@H]1C(=O)N1CCC[C@H]1C(=O)N1CCC[C@H]1C(=O)N[C@@H](Cc1ccc(O)cc1)C(=O)N[C@H](C(=O)N[C@@H](CCC(=O)O)C(=O)N1CCC[C@H]1C(N)=O)C(C)C [HTLV1] (Ac-SDPQIPPPYVEP-NH2),amount by which theoretical enthalpy is smaller than the experimental enthalpy,hNEDD4-WW3 [1],12 kcal/mol
same,ΔH conf,hNEDD4-WW3 [1],"-49,97 kJ·mol -1"
same,ΔΔH HTLV-Ebola,hNEDD4-WW3 [4],−20 kJ/mol^−1
CSCC[C@H](NC(C)=O)C(=O)N[C@@H](CCC(N)=O)C(=O)N[C@@H](Cc1ccc(O)cc1)C(=O)N[C@@H](CC(C)C)C(=O)N[C@@H](CC(N)=O)C(=O)N1CCC[C@H]1C(=O)N1CCC[C@H]1C(=O)N1CCC[C@H]1C(=O)N[C@@H](Cc1ccc(O)cc1)C(=O)N[C@@H](C)C(=O)N[C@@H](CC(=O)O)C(=O)N[C@@H](Cc1c[nH]cn1)C(N)=O [Marburg],Kd,hNEDD4-WW3 [4],51 ± 1 µM
same,ΔHap,hNEDD4-WW3 [4]; pH 7,-17.5 ± 0.17 kcal/mol
CC(=O)N1CCC[C@H]1C(=O)N1CCC[C@H]1C(=O)N1CCC[C@H]1C(=O)N[C@@H](Cc1ccc(O)cc1)C(N)=O [PPPY] (Ac-PPPY-NH2),Kd,hNEDD4-WW3 [5],201 µM
same,ΔHap,hNEDD4-WW3 [5]; pH 7,^*−38 ± 1 kJ mol^−1
same,Kd,hYAP-WW2 [2],n. b.
same,Kd,hYAP-WW1 [6],320 ± 30 µM
same,ΔHap,hYAP-WW1 [6]; pH 7,^*−39 ± 3 kJ mol^−1
CC(=O)N[C@@H](CC(=O)O)C(=O)N[C@@H](CC(C)C)C(=O)N[C@@H](Cc1c[nH]c2ccccc12)C(=O)N[C@@H](CC(C)C)C(=O)N1CCC[C@H]1C(=O)N1CCC[C@H]1C(=O)N1CCC[C@H]1C(=O)N[C@@H](CCC(=O)O)C(=O)N[C@@H](Cc1ccc(O)cc1)C(=O)N[C@H](C(=O)N1CCC[C@H]1C(=O)N[C@@H](CC(C)C)C(N)=O)C(C)C [Rabies],Kd,hYAP-WW2 [2],n. b.
same,ΔHap,hYAP-WW1 [3],-15.2 ± 0.22 kcal/mol
same,Kd,hNEDD4-WW3 [4],51 ± 1 µM
same,ΔHap,hNEDD4-WW3 [4]; pH 7,-15.7 ± 0.19 kcal/mol
CC(=O)N[C@@H](CCC(=O)O)C(=O)N[C@@H](Cc1ccc(O)cc1)C(=O)N1CCC[C@H]1C(=O)N1CCC[C@H]1C(=O)N[C@@H](Cc1ccc(O)cc1)C(=O)N1CCC[C@H]1C(=O)N1CCC[C@H]1C(=O)N1CCC[C@H]1C(=O)N1CCC[C@H]1C(=O)N[C@@H](Cc1ccc(O)cc1)C(=O)N1CCC[C@H]1C(=O)N[C@@H](CO)C(=O)NCC(N)=O [p53bp2] (Ac-EYPPYPPPPYPSG-NH2),ΔHap,hYAP-WW2 [2],-13.6 ± 0.24 kcal/mol
same,"binding selectivity between hNEDD4-WW3, YAP-WW1 and YAP-WW2",hNEDD4-WW3 [4],do not distinguish between the three WW domains
same,Kd,hNEDD4-WW3 [4],4.1 µM and 5.3 µM and 9.1 µM
same,ΔCp,hNEDD4-WW3 [4]; pH 7,−1.59 kJ K^−1 mol^−1 and −1.59 ± 0.01 kJ K^−1 mol^−1
"APLpSPMpSPPGYKLV [CX43-Cter, Cx43 carboxyl terminus peptide of literature complex 2N8T]",Kd,rNEDD4-WW2,430 µM
"EEPPPPYED [Epstein-Barr, Epstein-Barr peptide of literature complex 2JO9]",Kd,hITCHY-WW3,52 µM
"ELESPPPPYSRYPMD [Smad7, Smad7 peptide […] of literature complexes 2LTY, 2LTX, 2LTZ, 2LTV, 2LTW]",Kd,SMURF2-WW3,4.5 µM
same,Kd,hYAP-WW1 [7],6.9 µM
same,Kd,NEDD4L-WW2,4.2 µM
same,Kd,SMURF1-WW2,4.2 µM
same,Kd,hYAP-WW2 [8],60 µM
GPPPY ({n‑octyl}-GPPPY) [peptide of literature complex 1K9Q],Kd,hYAP-WW1 [7],700 µM
"GSTLPIPGTPPPNYDSL [βENaC, βENaC peptide of literature complex 1I5H]",Kd,hNEDD4-WW3 [9],21 µM
"GTPPPPYTVG [WBP1, WBP1 peptide of literature complex 1JMQ]",Kd,hYAP-WW1 [7],40 µM
"NTGAKQPPSYEDCIK [Notch, Notch peptide of literature complex 2JMF]",Kd,SU(dx)-WW4,45 µM
PLPPY [peptide of literature complex 1K9R],Kd,hYAP-WW1 [7],500 µM
"RLDLPPYETFEDI [HECT-Cterm, HECT C-terminal peptide of literature complex 2MPT]",Kd,hNEDD4L-WW3,4 µM
RPE−5AP−3P−2SY0AEVVT (RPEAPPSYAEVVT) [ARRDC3],Kd,hNEDD4-WW3 [9],3.3 µM and 3 µM
RPE−5AP−3P−2SY0AEVVT [ARRDC3],ΔH conf,hNEDD4-WW3 [1],"-64,67 kJ·mol -1"
same,ΔH exp (25C),hNEDD4-WW3 [9],"-75,4 kJ·mol -1"
"TAPPPAYATLG [αENaC, αENaC PY motif peptide of literature complex 2M30]",ΔH conf,hNEDD4-WW3 [1],"-48,29 kJ·mol -1"
same,Kd,hNEDD4-WW3 [9],45 µM
same,ΔH exp (25C),hNEDD4-WW3 [9],"-58,2 kJ·mol -1"
"TGLPSYDEALH [Comm, Comm PY motif peptide of literature complex 2EZ5]",Kd,dNEDD4-WW3,3.1 µM
